Patent US20250340563A1, “FUSED PYRIDAZINE DERIVATIVES AS NLRP3 INHIBITORS” (Takeda Pharmaceutical Company Limited, priority 2022, published 2025)
pIC50: −log10 of the molar value.

Columns and labels:
MDR1 (P-gp) = biological target: T1, MDR1 (P-gp) (Homo sapiens, UniProt P08183); experiment: MDCK-MDR1 assay (apparent permeability and efflux ratio); type: in vitro ADME; conditions: dog; for efflux ratio at 60 min, 1 µM: pH 7.4, MDCK-MDR1, P-gp mediated efflux ratio, read-out: MDR1 ER; for Papp A→B at 60 min, 1 µM: MDCK-MDR1 monolayer, apical to basolateral, pH 7.4, 60 minutes
T1 construct: expressed in transfected cells; host or cells: Madin-Darby Canine Kidney (MDCK) cells
T1 sequence (P08183 whole entry, species assumed): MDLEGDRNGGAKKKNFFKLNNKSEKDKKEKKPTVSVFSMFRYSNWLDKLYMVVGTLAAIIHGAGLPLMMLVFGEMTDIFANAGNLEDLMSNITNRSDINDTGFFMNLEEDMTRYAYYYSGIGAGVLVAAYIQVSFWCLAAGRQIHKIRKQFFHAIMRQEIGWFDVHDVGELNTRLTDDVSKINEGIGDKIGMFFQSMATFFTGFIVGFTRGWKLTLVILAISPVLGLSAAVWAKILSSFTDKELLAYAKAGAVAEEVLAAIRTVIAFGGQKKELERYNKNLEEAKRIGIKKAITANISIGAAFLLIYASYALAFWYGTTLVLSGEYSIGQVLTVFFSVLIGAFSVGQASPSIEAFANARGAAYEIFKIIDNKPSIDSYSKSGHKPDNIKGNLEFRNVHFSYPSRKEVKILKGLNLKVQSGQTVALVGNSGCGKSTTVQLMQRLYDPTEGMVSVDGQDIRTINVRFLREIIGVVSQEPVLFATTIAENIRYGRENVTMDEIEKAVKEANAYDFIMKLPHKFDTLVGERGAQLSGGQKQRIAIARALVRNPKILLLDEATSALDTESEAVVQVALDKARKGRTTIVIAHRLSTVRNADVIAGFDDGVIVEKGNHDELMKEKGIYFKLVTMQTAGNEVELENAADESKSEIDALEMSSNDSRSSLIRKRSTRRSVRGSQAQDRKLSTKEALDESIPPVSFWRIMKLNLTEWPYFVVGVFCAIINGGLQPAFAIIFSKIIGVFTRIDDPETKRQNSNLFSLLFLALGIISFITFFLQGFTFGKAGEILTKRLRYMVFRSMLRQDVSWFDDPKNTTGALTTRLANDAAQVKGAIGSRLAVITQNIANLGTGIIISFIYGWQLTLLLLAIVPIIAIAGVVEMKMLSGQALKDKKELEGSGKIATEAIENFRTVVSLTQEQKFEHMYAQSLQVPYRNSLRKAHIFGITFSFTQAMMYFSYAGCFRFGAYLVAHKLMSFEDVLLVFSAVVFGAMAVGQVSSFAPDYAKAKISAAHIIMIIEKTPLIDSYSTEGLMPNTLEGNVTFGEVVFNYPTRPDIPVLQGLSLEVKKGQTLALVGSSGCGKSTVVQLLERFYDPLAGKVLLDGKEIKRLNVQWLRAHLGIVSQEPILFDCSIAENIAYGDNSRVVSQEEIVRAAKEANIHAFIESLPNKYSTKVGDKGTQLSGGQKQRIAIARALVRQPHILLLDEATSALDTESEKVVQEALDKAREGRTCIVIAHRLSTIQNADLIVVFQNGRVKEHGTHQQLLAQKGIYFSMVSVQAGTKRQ
Protocol: Madine-Darby Canine Kidney (MDCK) cells transfected with Multidrug resistance protein 1 (MDR1) are maintained in accordance with the provider's instructions in Dulbecco's Modified Eagle media (DMEM, Fisher Scientific Cat #10569044). DMEM is supplemented with 10% heat inactivated fetal bovine serum (Gibco Cat #16000-044), Penicillin-Streptomycin (100 units/mL) (Gibco Cat #15140122) and an inducer of P-gp, colchicine (200 nM) (Sigma Cat #C9754). The cells are seeded onto the apical side of HTS-Transwell-96 Plates (0.4 μm pore size, Corning Cat #3381) at a density of 6.25×10^3 cells per well with 75 μL and 250 μL of DMEM media in apical and basolateral wells, respectively, and are incubated at 37° C./5% CO2. Fresh DMEM media is exchanged in the apical and basolateral compartments after 72 hours and cells are allowed to grow into a monolayer for 144 hours before beginning the experimental incubation. Incubations are performed in Hanks' Balanced Salt Solution (HBSS, Fisher Scientific Cat #14025134) at pH 7.4 with 1% Bovine Serum Albumin (Sigma, Cat #A9418) and 10 mM HEPES (Fisher Scientific, Cat #15630080). DMEM media is removed and cells are rinsed with warm (37° C.) HBSS. HBSS with test compound at 1p M substrate concentration (0.1% v/v DMSO) is added to either the apical or basolateral compartment (75 μL or 250 μL, respectively) and blank HBSS buffer is added to the compartment which lacks test compound in singlicate. The cells are incubated for 60 minutes at 37° C./5% CO2. At the end of the incubation period, 50 μL of sample is removed from each receiver compartment and diluted into 150 μL of acetonitrile (Fisher Scientific, Cat #A996SK4)+0.1% formic acid (Sigma, Cat #F0507). The samples are centrifuged at 2000 rcf for 10 minutes at 4° C., after which 100 μL of supernatant is transferred to a new microplate and diluted with 100 μL of HPLC grade water (Fisher Scientific, Cat #W64). Samples are analyzed using a triple quadrupole mass spectrometer API-5500QTrap (ABSciex, Serial No. AU23291006) along with associated autosampler and high performance liquid chromatography pump instrumentation optimized for the detection of test articles through a Kinetix 2.1×50 mm C18 100 Å column (Phenomenex, Cat #00B-4605-AN).
Apparent permeability (Papp) values and efflux ratio are calculated using the following equations: […]

NLRP3 inflammasome = NLRP3 inflammasome (Homo sapiens, UniProt Q96P20); experiment: IL-1β assay in IFN-γ-differentiated, LPS-primed, ATP-activated THP-1 cells (ELISA); type: cell-based; conditions: 50 ng/mL LPS priming, 2.5 mM ATP activation, 2 hours
Chain of NLRP3 inflammasome (Q96P20 whole entry): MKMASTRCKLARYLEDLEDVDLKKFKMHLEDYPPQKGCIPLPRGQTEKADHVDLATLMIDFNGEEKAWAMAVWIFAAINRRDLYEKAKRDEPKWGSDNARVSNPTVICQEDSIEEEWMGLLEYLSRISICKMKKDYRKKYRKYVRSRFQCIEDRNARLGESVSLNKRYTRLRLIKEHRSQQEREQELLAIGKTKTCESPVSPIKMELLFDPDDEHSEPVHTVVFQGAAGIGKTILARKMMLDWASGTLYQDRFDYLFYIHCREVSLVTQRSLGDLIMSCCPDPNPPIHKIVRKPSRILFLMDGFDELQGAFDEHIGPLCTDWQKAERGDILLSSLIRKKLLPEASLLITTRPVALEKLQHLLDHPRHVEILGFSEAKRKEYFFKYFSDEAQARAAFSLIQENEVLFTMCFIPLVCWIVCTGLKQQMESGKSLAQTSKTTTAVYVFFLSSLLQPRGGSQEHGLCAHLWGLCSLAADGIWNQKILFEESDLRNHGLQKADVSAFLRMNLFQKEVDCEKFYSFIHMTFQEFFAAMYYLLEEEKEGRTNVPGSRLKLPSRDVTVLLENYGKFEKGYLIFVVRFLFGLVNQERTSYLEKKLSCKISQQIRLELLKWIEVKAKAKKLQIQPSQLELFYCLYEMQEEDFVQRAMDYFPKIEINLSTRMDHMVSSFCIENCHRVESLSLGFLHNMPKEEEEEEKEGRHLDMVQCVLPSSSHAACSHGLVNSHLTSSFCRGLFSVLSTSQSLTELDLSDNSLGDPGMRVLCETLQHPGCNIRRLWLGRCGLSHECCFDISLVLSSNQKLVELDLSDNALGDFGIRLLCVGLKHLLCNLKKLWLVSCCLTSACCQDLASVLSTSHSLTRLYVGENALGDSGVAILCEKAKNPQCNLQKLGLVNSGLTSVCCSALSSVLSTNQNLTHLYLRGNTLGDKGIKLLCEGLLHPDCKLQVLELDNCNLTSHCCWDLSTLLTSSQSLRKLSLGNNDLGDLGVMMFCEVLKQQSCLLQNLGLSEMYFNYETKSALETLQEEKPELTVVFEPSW
In short: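 THP-1 cells differentiated with 25 ng/mL IFN-γ for 24 h, then primed with 50 ng/mL LPS for 24 h in serum-free medium. After 30 min compound preincubation (1:3.16 dilution series), inflammasome activated with 2.5 mM ATP for 2 h at 37 °C. Supernatant IL-1β measured by ELISA; IC50 from logistic fit of % inhibition.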

NF-κB pathway = experiment: TNF-α assay in IFN-γ-differentiated, LPS-stimulated THP-1 cells (ELISA); type: cell-based; conditions: Homo sapiens, 50 ng/mL LPS, 3 hours
In short: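 THP-1 cells differentiated with 25 ng/mL IFN-γ for 24 h, then preincubated 30 min at 37 °C with compound (1:3.16 serial dilutions) in serum-free medium. Stimulated with 50 ng/mL LPS for 3 h; supernatant assayed by human TNF-α ELISA. IC50 from four-parameter logistic fit of % inhibition.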

SMILES	efflux ratio at 60 min, 1 µM (MDR1 (P-gp))	Papp A→B at 60 min, 1 µM (MDR1 (P-gp))	pIC50 (NLRP3 inflammasome)	pIC50 (NF-κB pathway)
CN1C[C@H](F)C[C@@H](Nc2nnc(-c3ccc(OC(F)(F)F)cc3O)c3c2COCC3)C1 [Example 236, 2-(4-(((3R,5R)-5-fluoro-1-methylpiperidin-3-yl)amino)-7,8-dihydro-5H-pyrano[3,4-d]pyridazin-1-yl)-5-(trifluoromethoxy)phenol]	10	2.2 ×10⁻⁶ cm/s	8.15	< 4.52
COc1ccc(-c2nnc(N[C@@H]3C[C@@H](F)CN(C)C3)c3c2CCOC3)c(O)c1 [Example 237, 2-(4-(((3R,5R)-5-fluoro-1-methylpiperidin-3-yl)amino)-7,8-dihydro-5H-pyrano[3,4-d]pyridazin-1-yl)-5-methoxyphenol]	10	1.6 ×10⁻⁶ cm/s	7.96	< 4.52
CN1C[C@H](F)C[C@@H](Nc2nnc(-c3ccc(C4CC4)cc3O)c3c2COCC3)C1 [Example 238, 5-cyclopropyl-2-(4-(((3R,5R)-5-fluoro-1-methylpiperidin-3-yl)amino)-7,8-dihydro-5H-pyrano[3,4-d]pyridazin-1-yl)phenol]	41	0.6 ×10⁻⁶ cm/s	8.30	< 4.52
CN1C[C@H](F)C[C@@H](Nc2nnc(-c3ccc(C(F)F)cc3O)c3c2COCC3)C1 [Example 239, 5-(difluoromethyl)-2-(4-(((3R,5R)-5-fluoro-1-methylpiperidin-3-yl)amino)-7,8-dihydro-5H-pyrano[3,4-d]pyridazin-1-yl)phenol]	39	1.2 ×10⁻⁶ cm/s	7.96	< 4.52
